# Experiment: Na2S2O5 in an open environment: SO2 concentration in air measured daily
# Format: physicochemical
# Description: FIG. 12A and FIG. 12B show the results of a test that was performed to establish how Na2S2O5 reacts with the environment, and the effect of changes in relative humidity.
# 0.1 g of Na2S2O5 on sampling “boats” were placed on top of a counter; i.e., in an “open” environment. The concentration of SO2 gas (in parts per million, ppm) in the air at about 2.5 cm (about 1″) above the Na2S2O5 was measured daily for more than 50 days of testing. The relative humidity was also measured for each day of testing.
# This is in agreement with the known chemistry of Na2S2O5.
smiles,measurement,setting,value
"O=S([O-])S(=O)(=O)[O-].[Na+].[Na+] [Na2S2O5, sodium metabisulfite]",average SO2 concentration generated,"0.1 g Na2S2O5, open environment, about 2.5 cm above sample, up to 50 days",0.5 ppm
same,duration of continuous SO2 generation,summary of the several tests,more than 50 days

# From patent US20150196022A1, “ABSORBENT PAD HAVING THREE OR MORE MODULES TO ENHANCE PRESERVATION OF FLOWERS” (Paper-Pak Industries, priority 2014, published 2015)
